# Source: patent publication US11970448B2, “Monomers capable of dimerizing in an aqueous solution, and methods of using same” (CORNELL UNIVERSITY, priority 2011, dated 2024)
# Where two headings read alike, the source gives them in different places.
# Target: T1, recominbant human tryptase, beta, from lung (Homo sapiens, UniProt P20231)
# T1 construct: purchased Promega or Enzo Life Sciences G5631 or BML-SE418
# Experiment: Inhibition of tryptase activity by monomers and multimers (Boc-Gln-Ala-Arg-AMC fluorescence)
# Assay type: biochemical
# Details: monomers against tryptase
# Procedure: Stock solutions of recominbant human tryptase, beta, from lung (Promega: catalog number G5631, or Enzo Life Sciences: catalog number BML-SE418) were made at 30 μM, in solution with 5 μM heparin sulfate and 1 M NaCl. Monomer tryptase inhibitor stock solutions were made at 50 mM in DMSO. Test substance plates were made at 1.2× the final concentration in assay buffer (50 mM HEPES, 150 mM NaCl, 100 μM EDTA, pH 7.4, 0.02% Tween-20). A final concentration of 1 nM tryptase was used. When required, test substances were diluted in water immediately before use in 10-fold serial dilutions. After the indicated incubation time, the test subtance-tryptase solution at 1.2× concentration, was diluted into assay buffer containing a final concentration of 200 μM N-tert-butoxycarbonyl-Gln-Ala-Arg-AMC HBr [AMC=7-amino-4-methylcoumarin] (Boc-Gln-Ala-Arg-AMC; Enzo Life Sciences: catalog number BML-P237) to a final volume of 50 μl in black opaque round bottom 96 well plates (Corning, catalog number 3792). The release of fluorescent AMC was immediately measured every 30 seconds over 15-30 minutes at an excitation wavelength of 367 nm, monitoring emission at 468 nm on a Spectramax M5 (Molecular Devices) microplate reader. The Softmax Pro (Molecular Devices) and Graphpad prism software were used to determine Vmax, and concentration-response curve IC50s, respectively.
# [1] = Table 5, read-out: Monomer IC50 range
# [2] = read-out: IC50 range group of additional monomers (boronic acid, benzooxaborole, ligands)
# T1 sequence (P20231 31-275): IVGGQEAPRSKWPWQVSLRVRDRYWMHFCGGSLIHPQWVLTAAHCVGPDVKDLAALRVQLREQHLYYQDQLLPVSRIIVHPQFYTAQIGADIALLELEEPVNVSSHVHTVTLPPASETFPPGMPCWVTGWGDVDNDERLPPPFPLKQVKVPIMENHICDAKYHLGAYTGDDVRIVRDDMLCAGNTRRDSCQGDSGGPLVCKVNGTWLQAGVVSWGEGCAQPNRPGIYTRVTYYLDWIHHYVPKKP
SMILES,IC50 [1],IC50 [2],"IC50 (entry marked (1:10), read-out: IC50 range group of additional monomers marked (1:10))"
"NCc1cccc(C2CCN(C(=O)c3cccc(C(=O)N4C[C@@H](O)[C@@H](O)C4)c3)CC2)c1 [T26diol trans, (4-(3-(aminomethyl)phenyl)piperidin-1-yl)(3-((3S,4R)-3,4-dihydroxypyrrolidine-1-carbonyl)phenyl)methanone]",1000 to 10000 nM,1000 to 10000 nM,–
"NCc1ccc(F)c(C2CCN(C(=O)c3cccc4cc(O)c(O)cc34)CC2)c1 [T27F, (4-(5-(aminomethyl)-2-fluorophenyl)piperidin-1-yl)(6,7-dihydroxynaphthalen-1-yl)methanone]",1000 to 10000 nM,1000 to 10000 nM,–
"NCc1cccc(C2CCN(C(=O)c3cccc(O)c3O)CC2)c1 [T28, (4-(3-(aminomethyl)phenyl)piperidin-1-yl)(2,3-dihydroxyphenyl)methanone]",1000 to 10000 nM,1000 to 10000 nM,–
"NCc1cccc(C2CCN(C(=O)c3cccc(OCC(=O)N4C[C@@H](O)[C@@H](O)C4)c3)CC2)c1 [T29, 2-(3-(4-(3-(aminomethyl)phenyl)piperidine-1-carbonyl)phenoxy)-1-((3S,4R)-3,4-dihydroxypyrrolidin-1-yl)ethanone]",1000 to 10000 nM,–,–
"NCc1cccc(C2CCN(C(=O)c3ccc(OCC(=O)N4C[C@@H](O)[C@@H](O)C4)cc3)CC2)c1 [T30, 2-(4-(4-(3-(aminomethyl)phenyl)piperidine-1-carbonyl)phenoxy)-1-((3S,4R)-3,4-dihydroxypyrrolidin-1-yl)ethanone]",1000 to 10000 nM,1000 to 10000 nM,–
"NCc1cccc(C2CCN(C(=O)c3cc4cc(O)ccc4[nH]3)CC2)c1 [T31A, (4-(3-(aminomethyl)phenyl)piperidin-1-yl)(5-hydroxy-1H-indol-2-yl)methanone]",0.1 to 1000 nM,–,–
"NCc1cccc(C2CCN(C(=O)c3cc4c(B(O)O)cccc4[nH]3)CC2)c1 [T32, 2-(4-(3-(aminomethyl)phenyl)piperidine-1-carbonyl)-1H-indol-4-ylboronic acid]",1000 to 10000 nM,1000 to 10000 nM,–
"NCc1cccc(C2CCN(C(=O)/C=C/c3ccc(B(O)O)cc3)CC2)c1 [T33, (E)-4-(3-(4-(3-(aminomethyl)phenyl)piperidin-1-yl)-3-oxoprop-1-enyl)phenylboronic acid]",1000 to 10000 nM,1000 to 10000 nM,–
"N=C(N)c1ccc2c(c1)C1(CCN(C(=O)/C=C/c3ccc(B(O)O)cc3)CC1)CO2 [T33SPAM, (E)-4-(3-(5-carbamimidoyl-2H-spiro[benzofuran-3,4′-piperidine]-1′-yl)-3-oxoprop-1-enyl)phenylboronic acid]",–,1000 to 10000 nM,–
"NCc1cccc(C2CCN(C(=O)/C=C/c3cccc(B(O)O)c3)CC2)c1 [T34, (E)-3-(3-(4-(3-(aminomethyl)phenyl)piperidin-1-yl)-3-oxoprop-1-enyl)phenylboronic acid]",1000 to 10000 nM,1000 to 10000 nM,–
"NCc1cccc(C2CCN(C(=O)c3cccc(-c4cccc(B(O)O)c4)c3)CC2)c1 [T35, 3′-(4-(3-(aminomethyl)phenyl)piperidine-1-carbonyl)biphenyl-3-ylboronic acid]",0.1 to 1000 nM,0.1 to 1000 nM,–
"NCc1ccc(F)c(C2CCN(C(=O)c3cccc(-c4cccc(B(O)O)c4)c3)CC2)c1 [T35F, 3′-(4-(5-(aminomethyl)-2-fluorophenyl)piperidine-1-carbonyl)biphenyl-3-ylboronic acid]",0.1 to 1000 nM,0.1 to 1000 nM,–
"N=C(N)c1ccc2c(c1)C1(CCN(C(=O)c3cccc(-c4cccc(B(O)O)c4)c3)CC1)CO2 [T35SPAM, 3′-(5-carbamimidoyl-2H-spiro[benzofuran-3,4′-piperidine]-1′-ylcarbonyl)biphenyl-3-ylboronic acid]",–,0.1 to 1000 nM,–
"NCc1ccc2c(c1)C1(CCN(C(=O)c3cccc(-c4cccc(B(O)O)c4)c3)CC1)CO2 [T35SPIRO, 3′-(5-(aminomethyl)-2H-spiro[benzofuran-3,4′-piperidine]-1′-ylcarbonyl)biphenyl-3-ylboronic acid]",1000 to 10000 nM,1000 to 10000 nM,–
"NCc1cccc(C2CCN(C(=O)c3ccc(-c4ccc5c(c4)COB5O)cc3)CC2)c1 [T36, (4-(3-(aminomethyl)phenyl)piperidin-1-yl)(4-(1-hydroxy-1,3-dihydrobenzo[c][1,2]oxaborol-5-yl)phenyl)methanone]",1000 to 10000 nM,1000 to 10000 nM,–
"NCc1cccc(C2CCN(C(=O)c3cccc(-c4ccc5c(c4)COB5O)c3)CC2)c1 [T36M, (4-(3-(aminomethyl)phenyl)piperidin-1-yl)(3-(1-hydroxy-1,3-dihydrobenzo[c][1,2]oxaborol-5-yl)phenyl)methanone]",0.1 to 1000 nM,0.1 to 1000 nM,–
"NCc1cccc(C2CCN(C(=O)c3cccc4sc(B(O)O)cc34)CC2)c1 [T37, 4-(4-(3-(aminomethyl)phenyl)piperidine-1-carbonyl)benzo[b]thiophen-2-ylboronic acid]",1000 to 10000 nM,1000 to 10000 nM,–
"NCc1cccc(C2CCN(C(=O)c3cccc4sc(Br)cc34)CC2)c1 [T37A, (4-(3-(aminomethyl)phenyl)piperidin-1-yl)(2-bromobenzo[b]thiophen-4-yl)methanone]",1000 to 10000 nM,–,–

SMILES,IC50 [1],IC50 [2],"IC50 (entry marked (1:10), read-out: IC50 range group of additional monomers marked (1:10))"
"NCc1cccc(C2CCN(C(=O)/C=C/c3ccc(O)c(CO)c3)CC2)c1 [T40, (E)-1-(4-(3-(aminomethyl)phenyl)piperidin-1-yl)-3-(4-hydroxy-3-(hydroxymethyl)phenyl)prop-2-en-1-one]",1000 to 10000 nM,1000 to 10000 nM,–
"NCc1cccc(C2CCN(C(=O)/C=C/c3ccc(CO)c(O)c3)CC2)c1 [T41, (E)-1-(4-(3-(aminomethyl)phenyl)piperidin-1-yl)-3-(3-hydroxy-4-(hydroxymethyl)phenyl)prop-2-en-1-one]",0.1 to 1000 nM,0.1 to 1000 nM,–
"NCc1cccc(C2CCN(C(=O)/C=C/c3ccc(C4CC4)c(O)c3)CC2)c1 [T41CYCLO, (E)-1-(4-(3-(aminomethyl)phenyl)piperidin-1-yl)-3-(4-cyclopropyl-3-hydroxyphenyl)prop-2-en-1-one]",0.1 to 1000 nM,–,–
"CC(C)(O)c1ccc(/C=C/C(=O)N2CCC(c3cccc(CN)c3)CC2)cc1O [T41GEM, (E)-1-(4-(3-(aminomethyl)phenyl)piperidin-1-yl)-3-(3-hydroxy-4-(2-hydroxypropan-2-yl)phenyl)prop-2-en-1-one]",0.1 to 1000 nM,0.1 to 1000 nM,–
NCc1cccc(C2CCN(C(=O)/C=C/c3cccc(O)c3CO)CC2)c1 [T42],1000 to 10000 nM,1000 to 10000 nM,–
"NCc1cccc(C2CCN(C(=O)/C=C/c3cc(O)c(O)c(O)c3)CC2)c1 [T43, (E)-1-(4-(3-(aminomethyl)phenyl)piperidin-1-yl)-3-(3,4,5-trihydroxyphenyl)prop-2-en-1-one]",0.1 to 1000 nM,0.1 to 1000 nM,–
"NCc1cccc(C2CCN(C(=O)c3cccc4cc(CO)c(O)cc34)CC2)c1 [T44, (4-(3-(aminomethyl)phenyl)piperidin-1-yl)(7-hydroxy-6-(hydroxymethyl)naphthalen-1-yl)methanone]",1000 to 10000 nM,1000 to 10000 nM,–
NCc1cccc(C2CCN(C(=O)c3ccc(B(O)O)c4cccnc34)CC2)c1 [T51],–,10000 to 65000 nM,–
"NCc1cccc(C2CCN(C(=O)c3cccc(OCCC(=O)N4C[C@@H](O)[C@@H](O)C4)c3)CC2)c1 [T53, 3-(3-(4-(3-(aminomethyl)phenyl)piperidine-1-carbonyl)phenoxy)-1-((3S,4R)-3,4-dihydroxypyrrolidin-1-yl)propan-1-one]",0.1 to 1000 nM,0.1 to 1000 nM,–
"NCc1cccc(C2CCN(C(=O)c3cccc(O)c3)CC2)c1 [T53B, (4-(3-(aminomethyl)phenyl)piperidin-1-yl)(3-hydroxyphenyl)methanone]",1000 to 10000 nM,–,–
"NCc1cccc(C2CCN(C(=O)Cc3ccc(O)c(F)c3)CC2)c1 [T54A, 1-(4-(3-(aminomethyl)phenyl)piperidin-1-yl)-2-(3-fluoro-4-hydroxyphenyl)ethanone]",1000 to 10000 nM,–,–
NCc1ccc2c(c1)C1(CCN(C(=O)Cc3ccc(B(O)O)c(F)c3)CC1)CO2 [T54BASPIRO],–,1000 to 10000 nM,–
NCc1cccc(C2CCN(C(=O)Cc3ccc(B(O)O)c(F)c3)CC2)c1 [T54BA],–,1000 to 10000 nM,–
"CC(C)(C)OC(=O)NCc1cccc(C2CCN(C(=O)c3cccc(NC(=O)C(=O)C(C)(C)O)c3)CC2)c1 [T55, tert-butyl 3-(1-(3-(3-hydroxy-3-methyl-2-oxobutanamido)benzoyl)piperidin-4-yl)benzylcarbamate]",0.1 to 1000 nM,–,–
"CC(C)(C)OC(=O)NCc1cccc(C2CCN(C(=O)c3cccc(NC(=O)C(O)C(C)(C)O)c3)CC2)c1 (stereo not drawn) [T55D, tert-butyl 3-(1-(3-(2,3-dihydroxy-3-methylbutanamido)benzoyl)piperidin-4-yl)benzylcarbamate]",0.1 to 1000 nM,–,0.1 to 1000 nM
"NCc1cccc(C2CCN(C(=O)c3cc4c(B(O)O)cccc4s3)CC2)c1 [T56, 2-(4-(3-(aminomethyl)phenyl)piperidine-1-carbonyl)benzo[b]thiophen-4-ylboronic acid]",0.1 to 1000 nM,0.1 to 1000 nM,–
"NCc1cccc(C2CCN(C(=O)c3cc4c(Br)cccc4s3)CC2)c1 [T56A, (4-(3-(aminomethyl)phenyl)piperidin-1-yl)(4-bromobenzo[b]thiophen-2-yl)methanone]",0.1 to 1000 nM,–,–
